Data on 38 compounds can be found in US7419984B2, “Pyrimidines and uses thereof” (Cell Therapeutics, Inc., priority 2002, dated 2008).

Broadly, the IC50 is the concentration that inhibits the measured activity by half.

The target of this assay is T1, human LPAAT-β (Homo sapiens, UniProt O15120).
T1 construct: the full-length human LPAAT-β cDNA was amplified by PCR; poly-histidine tag (N); made in house; host or cells: Sf9 insect cells (baculovirus, pFastBac HTc); the membrane fraction was used as the enzyme
T1 sequence (O15120 24-278): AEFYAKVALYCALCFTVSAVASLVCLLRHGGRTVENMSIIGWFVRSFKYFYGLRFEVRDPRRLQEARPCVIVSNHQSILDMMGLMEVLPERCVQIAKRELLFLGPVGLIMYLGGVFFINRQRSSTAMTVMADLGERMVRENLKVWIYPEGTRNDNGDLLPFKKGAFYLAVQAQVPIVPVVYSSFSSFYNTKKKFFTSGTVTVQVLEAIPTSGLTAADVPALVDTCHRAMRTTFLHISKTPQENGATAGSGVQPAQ
Description: LPAAT-β cell-free assay. Type of assay: biochemical. As to conditions: Sf9 cell membrane overexpressing recombinant LPAAT-β. In a few lines:
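Membranes from Sf9 cells expressing His/myc-tagged full-length human LPAAT-β were used in HEPES-saline pH 7.5 with 1 mg/ml BSA. Compound was added from a 200 μM DMSO stock, and reaction with 18:1-CoA and sn-1-18:1 lysoPA (1 mM stocks) ran 25 min at RT. Released CoA was detected with DTNB at 405 nm; a radiometric variant used 200 μM [14C]18:1-CoA and 200 μM lysoPA.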

`CC(=O)c1ccc(Nc2cc(-c3cc(Cl)ccc3C)nc(N)n2)cc1` [Example 123, 1-{4-[2-amino-6-(5-chloro-2-methylphenyl)pyrimidin4-ylamino]phenyl}ethanone]: the 50% inhibitory concentration (IC50) came out at 150 nM. The result for `Cc1ccc(Nc2cc(-c3cc(Cl)ccc3Cl)nc(N)n2)cc1` [Example 15, 6-(2,5-Dichloro-phenyl)-N*4*-p-tolyl-pyrimidine-2,4-diamine] reads 50 nM; that for `CCOc1ccc(Cl)cc1-c1cc(Nc2ccc(CO)cc2)nc(NC)n1` [Example 65, {4-[6-(5-Chloro-2-ethoxy-phenyl)-2-methylamino-pyrimidin4-ylamino]-phenyl}-methanol], 140 nM; that for `CCOc1ccc(Br)cc1-c1cc(Nc2ccc(C(=O)NO)cc2)nc(N)n1` [Example 183, 4-[2-Amino-6-(5-bromo-2-ethoxy-phenyl)-pyrimidin-4-ylamino]-N-hydroxy-benzamide], 88 nM. The result for `CC(C)Oc1ccc(Br)cc1-c1cc(Nc2ccc(CCO)cc2)nc(N)n1` [Example 141, 2-{4-[2-Amino-6-(5-bromo-2-isopropoxy-phenyl)-pyrimidin-4-ylamino]-phenyl}-ethanol] reads 390 nM. With `CCOc1ccc(Cl)cc1-c1cc(Nc2ccc(CC(C)(C)O)cc2)nc(N)n1` [Example 120, 1-{4-[2-amino-6-(5-chloro-2-ethoxyphenyl)pyrimidin-4-ylamino]phenyl}-2-methyl-propan-2-ol], the IC50 was 180 nM. As for `CCOc1ccc(Br)cc1-c1cc(Nc2ccc(C(=O)c3ccccc3)cc2)nc(N)n1` [Example 59, {4-[2-Amino-6-(5-bromo-2-ethoxy-phenyl)-pyrimidin4-ylamino]-phenyl}-phenyl-methanone], the figure is 210 nM. As to `CN(C)CCCOc1ccc(Br)cc1-c1cc(Nc2ccc(Cl)cc2)nc(N)n1` [Example 156, 6-[5-Bromo-2-(3-dimethylamino-propoxy)-phenyl]-N*4*-(4-chloro-phenyl)-pyrimidine-2,4-diamine], the IC50 turned out to be 1400 nM.

On to `Cc1ccc(Cl)cc1-c1cc(Nc2ccc(Br)cc2)nc(N)n1` [Example 30, N*4*-(4-Bromo-phenyl)-6-(5-chloro-2-methyl-phenyl)-pyrimidine-2,4-diamine], for which the IC50 came out at 34 nM. As for `COc1ccc(Cl)cc1-c1cc(Nc2ccc(C#N)cc2)nc(N)n1` [Example 45, 4-[2-Amino-6-(5-chloro-2-methoxy-phenyl)-pyrimidin-4-ylamino]-benzonitrile], the 50% inhibitory concentration (IC50) came out at 33 nM.

For `COc1ccc(Cl)cc1-c1cc(Nc2ccc3ncsc3c2)nc(N)n1` [Example 8, N*4*-Benzothiazol-6-yl-6-(5-chloro-2-methoxy-phenyl)-pyrimidine-2,4-diamine], the IC50 is 270 nM. As for `CCOc1ccc(Br)cc1-c1cc(Nc2ccc(C(C)OC)cc2)nc(N)n1` (centres unmarked) [Example 137, 6-(5-Bromo-2-ethoxy-phenyl)-N*4*-[4-(1-methoxy-ethyl)-phenyl]-pyrimidin-2,4-diamine], the figure is 260 nM. The result for `COc1ccc(Br)cc1-c1cc(Nc2ccc(Cl)cc2)nc(N)n1` [Example 142, 6-(5-Bromo-2-methoxy-phenyl)-N*4*-(4-chloro-phenyl)-pyrimidine-2,4-diamine] reads 18 nM; that for `Cc1ccc(Cl)cc1-c1cc(Nc2ccc3c(c2)C(=O)NC3=O)nc(N)n1` [Example 79, 5-[2-Amino-6-(5-chloro-2-methyl-phenyl)-pyrimidin4-ylamino]-isoindole-1,3-dione], 900 nM. As to `Nc1nc(Nc2ccc([N+](=O)[O-])cc2)cc(-c2cc(Cl)ccc2Cl)n1` [Example 25, 6-(2,5-Dichloro-phenyl)-N*4*-(4-nitro-phenyl)-pyrimidine-2,4-diamine], the IC50 came out at 9 nM.

On to `Nc1nc(Nc2ccc(Cl)cc2)cc(-c2cc(Br)ccc2O)n1` [Example 72, 2-[2-Amino-6-(4-chloro-phenylamino)-pyrimidin-4-yl]-4-bromo-phenol], for which the IC50 was 450 nM. On to `CCCCOc1ccc(Br)cc1-c1cc(Nc2ccc(Cl)cc2)nc(N)n1` [Example 148, 6-(5-Bromo-2-butoxy-phenyl)-N*4*-(4-chloro-phenyl)-pyrimidine-2,4-diamine], for which the IC50 is 5 nM. As for `CCOc1ccc(Br)cc1-c1cc(Nc2ccc(B(O)O)cc2)nc(N)n1` [Example 159, 4-[2-Amino-6-(5-bromo-2-ethoxy-phenyl)-pyrimidin-4-ylamino]-phenyl-boronic acid], the figure is 200 nM. The result for `COc1ccc(Cl)cc1-c1cc(Nc2ccc(N)cc2)nc(N)n1` [Example 12, N*4*-(4-Amino-phenyl)-6-(5-chloro-2-methoxy-phenyl)-pyrimidine-2,4-diamine] reads 95 nM; that for `COc1ccc(Cl)cc1-c1nc(N)cc(Nc2ccc3cn[nH]c3c2)n1` [Example 37, 2-(5-Chloro-2-methoxy-phenyl)-N-(1H-indazol-6-yl)-pyrimidine4,6-diamine], 2100 nM. As for `CCOc1ccc(Cl)cc1-c1cc(Nc2ccc(Cl)cc2)nc(N)n1` [Example 55, 6-(5-Chloro-2-ethoxy-phenyl)-N*4*-(4-chloro-phenyl)-pyrimidine-2,4-diamine], the figure is 17 nM; as for `Nc1nc(Nc2ccc(C(F)(F)F)cc2)cc(-c2cc(Cl)ccc2Cl)n1` [Example 18, 6-(2,5-Dichloro-phenyl)-N*4*-(4-trifuoromethyl-phenyl)-pyrimidine-2,4-diamine], 82 nM; as for `Cc1ccc(Cl)cc1-c1cc(Nc2ccc(C(CO)CO)cc2)nc(N)n1` [Example 116, 2-{4-[2-Amino-6-(5-chloro-2-methyl-phenyl)-pyrimidin-2-yl-amino]-phenyl}-propane-1,3-diol], 1100 nM.

Take `COc1ccc(Cl)cc1-c1cc(Nc2ccc(Br)cc2)nc(C)n1` [Example 39, [6-(5-Chloro-2-methoxy-phenyl)-2-methyl-pyrimidin-4-yl]-(4-bromo-phenyl)-amine]: the IC50 is 180 nM. As for `Cc1ccc(Nc2cc(-c3cc(Cl)ccc3C)nc(N)n2)cc1` [Example 26, 6-(5-Chloro-2-methyl-phenyl)-N*4*-p-tolyl-pyrimidine-2,4-diamine], the figure is 94 nM.

As to `CCOc1ccc(Br)cc1-c1cc(Nc2ccc(C(O)C(F)(F)F)cc2)nc(N)n1` (centres unmarked) [Example 129, 1-{4-[2-Amino-6-(5-bromo-2-ethoxy-phenyl)-pyrimidin4-ylamino]-phenyl}-2,2,2-trifluoro-ethanol], the 50% inhibitory concentration (IC50) is 14 nM. As to `CCCCCCOc1ccc(Br)cc1-c1cc(Nc2ccc(Cl)cc2)nc(N)n1` [Example 145, 6-(5-Bromo-2-hexyloxy-phenyl)-N*4*-(4-chloro-phenyl)-pyrimidine-2,4-diamine], the IC50 worked out at 5 nM. As for `COc1ccc(Br)cc1-c1cc(Nc2ccc(CCO)cc2)nc(N)n1` [Example 151, 2-{4-[2-Amino-6-(5-bromo-2-methoxy-phenyl)-pyrimidin-4-ylamino]-phenyl}-ethanol], the figure is 55 nM.

With `Nc1nc(Nc2ccc(C(F)(F)F)cc2)cc(-c2cccc(Br)c2)n1` [Example 119, 6-(3-Bromo-phenyl)-N*4*-(4-trifluoromethyl-phenyl)-pyrimidine-2,4-diamine], the IC50 was 610 nM. With `CSc1cccc(Nc2cc(-c3cc(Cl)ccc3C)nc(N)n2)c1` [Example 111, 6-(5-Chloro-2-methyl-phenyl)-N*4*-(3-methylsulfanyl-phenyl)-pyrimidine-2,4-diamine], the half-maximal inhibitory concentration (IC50) was determined as 280 nM. The result for `COc1ccc(Cl)cc1-c1cc(Nc2ccc3cn[nH]c3c2)nc(C)n1` [Example 40, [6-(5-Chloro-2-methoxy-phenyl)-2-methyl-pyrimidin4-yl]-(1H-indazol-6-yl)-amine] reads 14 nM. The result for `COC(=O)c1ccc(Nc2cc(-c3cc(Cl)ccc3Cl)nc(N)n2)cc1` [Example 21, 4-[2-Amino-6-(2,5-dichloro-phenyl)-pyrimidin-4-yl-amino]-benzoic acid methyl ester] reads 330 nM; that for `Cc1ccc(Br)cc1-c1cc(Nc2ccc(Cl)cc2)nc(N)n1` [Example 84, 6-(5-Bromo-2-methyl-phenyl)-N*4*-(4-chloro-phenyl)-pyrimidine-2,4-diamine], 31 nM; that for `Cc1nc(Nc2ccc3cn[nH]c3c2)cc(-c2cc(Cl)ccc2C)n1` [Example 43, [6-(5-Chloro-2-methyl-phenyl)-2-methyl-pyrimidin-4-yl]-(1H-indazol-6-yl)-amine], 17 nM. As for `Cc1ccc(Br)cc1-c1cc(Nc2ccc(C#N)cc2)nc(N)n1` [Example 86, 4-[2-Amino-6-(5-bromo-2-methyl-phenyl)-pyrimidin-4-ylamino]-benzonitrile], the IC50 was 40 nM.

As to `Cc1ccc(Br)cc1-c1cc(Nc2ccc(N=[N+]=[N-])cc2)nc(N)n1` [Example 81, [6-(5-Bromo-2-methyl-phenyl)-(4-azido-phenyl)-pyrimidine]-2,4-diamine], the IC50 was determined as 190 nM. As for `CCc1cccc(Nc2cc(-c3cc(Cl)ccc3C)nc(N)n2)c1` [Example 115, 6-(5-Chloro-2-methyl-phenyl)-N*4*-(3-ethyl-phenyl)-pyrimidine-2,4-diamine], the figure is 210 nM; as for `COc1ccc(C)c(-c2cc(Nc3ccc(Cl)cc3)nc(N)n2)c1` [Example 71, N*4*-(4-Chloro-phenyl)-6-(5-methoxy-2-methyl-phenyl)-pyrimidine-2,4-diamine], 210 nM.
